pIC50: −log10 of the molar value. Like-named read-outs stand apart in the source and are kept apart here.
Experiments:
Assay in all cases: CellTiter Glo cell viability assay
Format in all cases: cell-based, human
[1] = system: Osteosarcomas KHOS_N/P; conditions: for pIC50: Homo sapiens, KHOS/NP, 72 h, 3 Days of treatment, 18 2-fold dilutions 5-0.00003 μM
In short: (§1)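 Cells seeded at 1.7*10^3/well in quadruplicate; compounds at 18 two-fold dilutions from 5 μM (0.000038146-5 μM), or at 1, 2, 5, 10 and 20 μM. CellTiter Glo luminescence read on days 1, 3 and 5 after treatment. IC50 by nonlinear regression of luminescence versus log dose.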

[2] = system: Liposarcoma 93T449; conditions: for pIC50: Homo sapiens, 72 h, 3 Days of treatment, 18 2-fold dilutions 5-0.00003 μM
In short: as §1

[3] = system: Osteosarcomas U2OS; conditions: for pIC50: Homo sapiens, U2OS, 72 h, 3 Days of treatment, 18 2-fold dilutions 5-0.00003 μM
In short: as §1

[4] = system: Pancreatic CAPAN-1; conditions: for pIC50: Homo sapiens, CAPAN-1, 72 h, 18 2-fold dilutions 5-0.00003 μM
In short: as §1

[5] = system: Osteosarcomas SJSA_1; conditions: for pIC50: Homo sapiens, SJSA-1, 72 h, 3 Days of treatment, 18 2-fold dilutions 5-0.00003 μM
In short: as §1

[6] = system: Colon HCT_116; conditions: for pIC50: Homo sapiens
In short: as §1

[7] = system: Bladder 5637; conditions: for pIC50: Homo sapiens
In short: as §1

[8] = system: Lung NCI-H596; conditions: for pIC50: Homo sapiens, NCI-H596, 72 h, 3 Days of treatment, 18 2-fold dilutions 5-0.00003 μM
In short: as §1

[9] = system: Bladder UMUC-14; conditions: for pIC50: Homo sapiens, UMUC14, 72 h, 3 Days of treatment, 18 2-fold dilutions 5-0.00003 μM
In short: as §1

[10] = system: Connective Tissue Sarcoma HT-1080; conditions: for pIC50: Homo sapiens, HT-1080, 72 h, 3 Days of treatment, 18 2-fold dilutions 5-0.00003 μM
In short: as §1

[11] = system: Lung BEAS-2B; conditions: for pIC50: Homo sapiens, BEAS-2B, 72 h, 3 Days of treatment, 18 2-fold dilutions 5-0.00003 μM
In short: as §1

[12] = system: Fibrosarcomas SW 684; conditions: for pIC50: Homo sapiens, SW684, 72 h, 3 Days of treatment, 18 2-fold dilutions 5-0.00003 μM
In short: as §1

[13] = system: Pancreatic CAPAN-2; conditions: for pIC50: Homo sapiens, Capan-2, 72 h, 3 Days of treatment, 18 2-fold dilutions 5-0.00003 μM
In short: as §1

[14] = system: Lung NCI-H1299; conditions: for pIC50: Homo sapiens, NCI-H1299, 72 h, 18 2-fold dilutions 5-0.00003 μM
In short: as §1

[15] = system: Rhabomyosarcoma CCL 166; conditions: for pIC50: Homo sapiens, 72 h, 3 Days of treatment, 18 2-fold dilutions 5-0.00003 μM
In short: as §1

[16] = system: Osteosarcomas MG3; conditions: for pIC50: Homo sapiens, 72 h, 3 Days of treatment, 18 2-fold dilutions 5-0.00003 μM
In short: as §1

[17] = system: Leiomyosarcoma SK-UT-1B; conditions: for pIC50: Homo sapiens, Skut1B, 72 h, 3 Days of treatment, 18 2-fold dilutions 5-0.00003 μM
In short: as §1

[18] = system: Pancreatic CFPAC; conditions: for pIC50: Homo sapiens, 72 h, 3 Days of treatment, 18 2-fold dilutions 5-0.00003 μM
In short: as §1

[19] = system: Lung NCI-H661; conditions: for pIC50: Homo sapiens, NCI-H661, 72 h, 3 Days of treatment, 18 2-fold dilutions 5-0.00003 μM
In short: as §1

[20] = system: Tongue SCC-9; conditions: for pIC50: Homo sapiens, SCC-9, 72 h, 3 Days of treatment, 18 2-fold dilutions 5-0.00003 μM
In short: as §1

[21] = system: Osteosarcomas Hs888.T; conditions: for pIC50: Homo sapiens, 72 h, 3 Days of treatment, 18 2-fold dilutions 5-0.00003 μM
In short: as §1

[22] = system: Kidney HTB-45; conditions: for pIC50: Homo sapiens, 72 h, 3 Days of treatment, 18 2-fold dilutions 5-0.00003 μM
In short: as §1

[23] = system: Osteosarcomas HOS_CRL_1543; conditions: for pIC50: Homo sapiens, 72 h, 3 Days of treatment, 18 2-fold dilutions 5-0.00003 μM
In short: as §1

[24] = 3 Days of treatment, read-out: Average IC50
[25] = Table 4: 3 Days of treatment, Average (1, 8) or single Exp A-D, read-out: IC50
[26] = HCT-116, 72 h, 3 Days of treatment, 18 2-fold dilutions 5-0.00003 μM, read-out: Average IC50
[27] = HCT-116, 120 h, Day 5 upon drug treatment, 10 dosages 0.0001-20 μM (Compound 8: 18 dosages 0.000038146 to 5 μM), read-out: IC50
[28] = 72 h, 3 Days of treatment, 18 2-fold dilutions 5-0.00003 μM, read-out: Average IC50
[29] = 120 h, Day 5 upon drug treatment, 10 dosages 0.0001-20 μM (Compound 8: 18 dosages 0.000038146 to 5 μM), read-out: IC50
[30] = IC50 of 1 [KYN-001] vs 8 [KYN-119], 3 Days

COc1cc(/C=C/c2cc(O)cc(OC)c2CC=C(C)C)ccc1O [Compound 1, (E)-3-(4-hydroxy-3-methoxystyryl)-5-methoxy-4-(3-methylbut-2-en-1-yl)phenol]
pIC50 [1]: 7.16
pIC50 [2]: 7.26
pIC50 [3]: 6.49
pIC50 [4, 24]: 5.21
pIC50 [4, 25]: 5.84
pIC50 [5]: 5.64
pIC50 [6, 26]: 6.38
pIC50 [6, 27]: 6.78
pIC50 [7, 28]: 7.46
pIC50 [7, 29]: 7.51
pIC50 [8]: 6.52
pIC50 [9]: 5.94
pIC50 [10]: 7.44
pIC50 [11]: 7.12
pIC50 [12]: 7.26
pIC50 [13]: 6.74
pIC50 [14, 24]: 7.20
pIC50 [14, 25]: 7.19
pIC50 [15]: 7.02
pIC50 [16]: 7.44
pIC50 [17]: 7.65
pIC50 [18]: 6.31
pIC50 [19]: 7.44
pIC50 [20]: 6.74
pIC50 [21]: 6.68
pIC50 [22]: 5.76
pIC50 [23]: 6.45

CCOc1cc(O)cc(/C=C/c2ccc(O)c(OC)c2)c1CC=C(C)C [Compound 8, (E)-3-Ethoxy-5-(4-hydroxy-3-methoxystyryl)-4-(3-methylbut-2-en-1-yl)phenol]
pIC50 [1]: 7.98
Fold IC50 [1, 30]: 6.6
pIC50 [2]: 7.82
Fold IC50 [2, 30]: 3.7
pIC50 [3]: 7.43
Fold IC50 [3, 30]: 8.8
pIC50 [4, 24]: 5.33
pIC50 [4, 25]: 5.61
Fold IC50 [4, 30]: 1.3
pIC50 [5]: 5.02
Fold IC50 [5, 30]: 0.2
pIC50 [6, 26]: 7.45
pIC50 [6, 27]: 7.55
Fold IC50 [6, 30]: 12
pIC50 [7, 28]: 8.41
pIC50 [7, 29]: ~8.03
Fold IC50 [7, 30]: 8.9
pIC50 [8]: 6.94
Fold IC50 [8, 30]: 2.6
pIC50 [9]: 6.25
Fold IC50 [9, 30]: 2.1
pIC50 [10]: 7.76
Fold IC50 [10, 30]: 2.1
pIC50 [11]: 7.82
Fold IC50 [11, 30]: 5.1
pIC50 [12]: 8.33
Fold IC50 [12, 30]: .12
pIC50 [13]: 8.01
Fold IC50 [13, 30]: 19
pIC50 [14, 24]: 8.07
pIC50 [14, 25]: 8.07
Fold IC50 [14, 30]: 7.3
pIC50 [15]: 8.22
Fold IC50 [15, 30]: 16
pIC50 [16]: 8.16
Fold IC50 [16, 30]: 5.2
pIC50 [17]: 8.19
Fold IC50 [17, 30]: 3.5
pIC50 [18]: 7.08
Fold IC50 [18, 30]: 6.0
pIC50 [19]: 7.94
Fold IC50 [19, 30]: 3.2
pIC50 [20]: 7.12
Fold IC50 [20, 30]: 2.4
pIC50 [21]: 7.58
Fold IC50 [21, 30]: 8.1
pIC50 [22]: 6.33
Fold IC50 [22, 30]: 3.7
pIC50 [23]: 7.49
Fold IC50 [23, 30]: 11

From patent US20260209152A1, “Substituted Hydroxystilbene Compounds and Derivatives, Synthesis and Uses Thereof” (Kynan Duke IP, LLC, priority 2019, published 2026)
